Measured values from PMC3537229 (European journal of pharmacology, 2012).
Like-named read-outs stand apart in the source and are kept apart here.

Assays:
NET [1] = target: T1, NET (Rattus norvegicus, UniProt Q63380); details: percentage of maximal release response; ref Baumann et al. (2012b); cited from earlier work
SERT [2] = target: T2, SERT (Rattus norvegicus, UniProt P31652); details: percentage of maximal release response; ref Baumann et al. (2012b); cited from earlier work
mice [3] = details: mice, 1, 3 or 10 mg/kg, i.p.; ref Robinson et al. (2012); cited from earlier work
DAT [4] = target: T3, DAT (Rattus norvegicus, UniProt P23977); assay: Release of [3H]MPP+ via DAT in rat brain synaptosomes; assay type: biochemical
DAT [5] = target: T3, DAT; assay: Inhibition of [3H]dopamine uptake in rat brain synaptosomes; assay type: biochemical
NET [6] = target: T1, NET; assay: Release of [3H]MPP+ via NET in rat brain synaptosomes; assay type: biochemical
NET [7] = target: T1, NET; assay: Inhibition of [3H]norepinephrine uptake in rat brain synaptosomes; assay type: biochemical
SERT [8] = target: T2, SERT; assay: Release of [3H]serotonin via SERT in rat brain synaptosomes; assay type: biochemical
SERT [9] = target: T2, SERT; assay: Inhibition of [3H]serotonin uptake in rat brain synaptosomes; assay type: biochemical
rats [10] = details: cited from earlier work
DAT [11] = target: T3, DAT; details: percentage of maximal release response; ref Baumann et al. (2012b); cited from earlier work
[12] = ref Kehr et al., 2011; cited from earlier work
mice [13] = details: 30 mg/kg, i.p.; ref Lisek et al., 2012; cited from earlier work
rats [14] = details: 30 mg/kg, i.p.; ref Lisek et al., 2012; cited from earlier work
mice [15] = details: ref Angoa-Perez et al., 2012, Lopez-Arnau et al., Marusich et al.; cited from earlier work
[16] = tested on: extracellular levels of dopamine and serotonin in rat nucleus accumbens; details: i.v. injection, 0.3 or 1.0 mg/kg; ref Baumann et al., 2012a; cited from earlier work

T3 sequence (P23977 whole entry): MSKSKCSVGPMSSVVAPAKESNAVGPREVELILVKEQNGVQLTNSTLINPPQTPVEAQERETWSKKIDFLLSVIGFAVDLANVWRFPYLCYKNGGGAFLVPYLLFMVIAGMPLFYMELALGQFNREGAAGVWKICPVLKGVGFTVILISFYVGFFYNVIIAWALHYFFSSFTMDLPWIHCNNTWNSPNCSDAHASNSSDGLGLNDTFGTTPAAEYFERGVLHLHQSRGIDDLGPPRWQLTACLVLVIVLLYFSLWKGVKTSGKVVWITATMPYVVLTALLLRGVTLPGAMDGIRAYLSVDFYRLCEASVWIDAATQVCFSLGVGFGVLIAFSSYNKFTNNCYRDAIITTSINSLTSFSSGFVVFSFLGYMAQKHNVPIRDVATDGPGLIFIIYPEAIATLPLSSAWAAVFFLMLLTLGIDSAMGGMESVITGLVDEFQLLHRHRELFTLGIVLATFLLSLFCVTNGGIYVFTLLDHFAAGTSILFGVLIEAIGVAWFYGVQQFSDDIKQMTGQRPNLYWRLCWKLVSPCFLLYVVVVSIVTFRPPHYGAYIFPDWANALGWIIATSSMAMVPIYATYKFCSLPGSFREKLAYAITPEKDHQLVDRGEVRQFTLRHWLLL
T2 sequence (P31652 whole entry): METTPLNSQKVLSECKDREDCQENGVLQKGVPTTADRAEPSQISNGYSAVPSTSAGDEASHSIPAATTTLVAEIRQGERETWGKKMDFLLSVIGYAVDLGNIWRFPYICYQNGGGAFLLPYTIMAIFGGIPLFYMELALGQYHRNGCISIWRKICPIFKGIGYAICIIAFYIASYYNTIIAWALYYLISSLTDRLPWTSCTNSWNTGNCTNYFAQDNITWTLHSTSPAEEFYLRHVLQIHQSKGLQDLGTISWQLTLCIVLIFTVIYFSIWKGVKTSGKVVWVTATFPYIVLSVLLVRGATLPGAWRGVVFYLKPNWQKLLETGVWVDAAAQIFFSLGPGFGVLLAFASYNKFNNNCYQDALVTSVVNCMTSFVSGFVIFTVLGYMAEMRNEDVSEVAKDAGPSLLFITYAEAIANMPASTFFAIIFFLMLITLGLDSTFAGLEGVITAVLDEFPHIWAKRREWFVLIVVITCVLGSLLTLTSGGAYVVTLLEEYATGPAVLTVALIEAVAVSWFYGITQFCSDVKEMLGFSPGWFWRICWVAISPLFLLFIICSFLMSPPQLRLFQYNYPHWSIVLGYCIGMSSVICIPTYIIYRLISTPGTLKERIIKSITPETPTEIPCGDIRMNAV
T1 sequence (Q63380 1-617): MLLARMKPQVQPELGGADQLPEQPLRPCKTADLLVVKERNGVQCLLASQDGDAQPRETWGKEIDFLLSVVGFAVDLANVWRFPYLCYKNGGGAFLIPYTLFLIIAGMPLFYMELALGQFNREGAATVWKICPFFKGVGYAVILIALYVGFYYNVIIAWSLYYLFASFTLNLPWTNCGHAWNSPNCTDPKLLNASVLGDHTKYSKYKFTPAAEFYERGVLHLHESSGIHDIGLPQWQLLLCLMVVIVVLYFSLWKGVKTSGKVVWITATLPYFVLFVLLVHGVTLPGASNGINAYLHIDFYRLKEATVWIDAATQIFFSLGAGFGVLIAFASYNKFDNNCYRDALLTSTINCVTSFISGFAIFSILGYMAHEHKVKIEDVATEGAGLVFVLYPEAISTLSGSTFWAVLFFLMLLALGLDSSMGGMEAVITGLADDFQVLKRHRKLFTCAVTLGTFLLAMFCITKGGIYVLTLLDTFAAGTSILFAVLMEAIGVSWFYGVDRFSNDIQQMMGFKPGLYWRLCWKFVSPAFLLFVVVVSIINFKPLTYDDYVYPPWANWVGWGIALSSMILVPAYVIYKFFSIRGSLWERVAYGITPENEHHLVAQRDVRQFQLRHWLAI

In the case of `CC(N)Cc1ccccc1` (centres unmarked) [Amphetamine], the “NET release Emax %” value (NET [1]) is listed as 92 ± 1% and the “SERT release Emax %” value (SERT [2]) is listed as 97 ± 2%.
For `COC(=O)[C@H]1[C@@H](OC(=O)c2ccccc2)C[C@@H]2CC[C@H]1N2C` [Cocaine], the “Brain stimulation reward thresholds” value (mice [3]) is listed as “this effect is mimicked by identical doses of cocaine”.
Molecule `CNC(C)Cc1ccc2c(c1)OCO2` (centres unmarked) [MDMA, 3,4-methylenedioxymethamphetamine] has an EC50 (DAT [4]) of 42 ± 2 nM, an Emax (DAT [4]; read-out: DAT release Emax %) of 100% and an IC50 (DAT [5]) of 1010 ± 39 nM. The EC50 (NET [6]) was 53 ± 7 nM, the Emax (NET [6]; read-out: NET release Emax %) was 95% and the IC50 (NET [7]) was 450 ± 30 nM. It also gave an EC50 (SERT [8]) of 39 ± 5 nM, an Emax (SERT [8]; read-out: SERT release Emax %) of 103% and an IC50 (SERT [9]) of 125 ± 11 nM.
For `CCCC(C(=O)c1ccc2c(c1)OCO2)N1CCCC1` (centres unmarked) [MDPV, 3,4-methylenedioxypyrovalerone], the “Uptake blocking potency at DAT compared to cocaine (fold more potent)” value (DAT [5]; more potent than cocaine) is listed as 50 fold, the Self-administration by rats (rats [10]; i.v., 0.05, 0.1 or 0.2 mg/kg, ref Watterson et al., 2012) is listed as “is readily self-administered by rats” and the “Drug-taking behavior with extended access” value (rats [10]; rats allowed extended access to the drug, ref Watterson et al., 2012) is listed as “escalation of drug-taking behavior is observed”. For the same molecule, the “Uptake blocking potency at NET compared to cocaine (fold more potent)” value (NET [7]; more potent than cocaine) was 10 fold and the “Uptake blocking potency at SERT compared to cocaine (fold less potent)” value (SERT [9]; less potent than cocaine) was 10 fold.
For `CNC(C)C(=O)c1ccc(C)cc1` (centres unmarked) [Mephedrone, 4-methylmethcathinone], the “DAT release Emax %” value (DAT [11]) is listed as 102 ± 2%, the “Rate of clearance compared to MDMA” value [12] is listed as “much faster rate of clearance when compared to MDMA” and the “NET release Emax %” value (NET [1]) is listed as 99 ± 4%. The “Place preference in mice” value (mice [13]) was “engenders a positive place preference”, the “Place preference in rats” value (rats [14]) was “engenders a positive place preference” and the “Brain stimulation reward thresholds” value (mice [3]) was “lowers brain stimulation reward thresholds”. The “Locomotor stimulant effects in mice” value (mice [15]) was “produces locomotor stimulant effects”, the Self-administration by rats (rats [10]; i.v., 0.24 mg/infusion, ref Hadlock et al. (2011)) was “is self-administered by rats” and the “SERT release Emax %” value (SERT [2]) was 101 ± 1%. For the same molecule, the “Extracellular levels of dopamine and serotonin in rat nucleus accumbens” value [16] was “increases extracellular levels of dopamine and serotonin”.
In the case of `CNC(C)C(=O)c1ccc2c(c1)OCO2` (centres unmarked) [Methylone, 3,4-methylenedioxymethcathinone], the “SERT release Emax %” value (SERT [2]) is given as 98 ± 2% and the “Extracellular levels of dopamine and serotonin in rat nucleus accumbens” value [16] is given as “increases extracellular levels of dopamine and serotonin”.
